Ends that are not written are not given here.
Key:
PDK1 = target: T1, PDK1 (Homo sapiens, UniProt O15530); conditions: in the presence of PIFtide (Biondi et al., 2000); cited from earlier work
T1 sequence (O15530 1-556): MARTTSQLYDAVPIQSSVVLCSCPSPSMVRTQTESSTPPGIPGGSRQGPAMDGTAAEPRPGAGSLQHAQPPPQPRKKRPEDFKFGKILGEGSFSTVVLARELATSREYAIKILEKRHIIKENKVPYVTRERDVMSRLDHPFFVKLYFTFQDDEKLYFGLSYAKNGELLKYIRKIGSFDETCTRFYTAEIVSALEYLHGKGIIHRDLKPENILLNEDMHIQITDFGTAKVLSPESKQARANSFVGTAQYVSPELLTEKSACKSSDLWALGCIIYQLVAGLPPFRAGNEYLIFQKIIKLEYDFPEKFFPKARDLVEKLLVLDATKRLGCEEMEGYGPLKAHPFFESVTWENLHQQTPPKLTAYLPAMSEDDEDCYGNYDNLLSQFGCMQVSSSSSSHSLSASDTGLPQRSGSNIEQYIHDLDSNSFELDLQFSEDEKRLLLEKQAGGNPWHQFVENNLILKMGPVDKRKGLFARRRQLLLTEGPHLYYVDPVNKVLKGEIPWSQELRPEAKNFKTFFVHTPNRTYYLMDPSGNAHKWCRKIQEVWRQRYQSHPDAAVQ

GST-PDK1 [Phe157Leu] = target: T2, GST-PDK1 [Phe157Leu] (Homo sapiens, UniProt O15530, F157L); experiment: PDK1 activity assay with T308tide; type: biochemical
T2 construct: different protein constructs, comprising the full length protein or the catalytic domain alone; made in house; host or cells: HEK293 cells (pEBG-2T-PDK1 mutant)
T2 sequence (O15530 whole entry F157L, the tested form may be a part): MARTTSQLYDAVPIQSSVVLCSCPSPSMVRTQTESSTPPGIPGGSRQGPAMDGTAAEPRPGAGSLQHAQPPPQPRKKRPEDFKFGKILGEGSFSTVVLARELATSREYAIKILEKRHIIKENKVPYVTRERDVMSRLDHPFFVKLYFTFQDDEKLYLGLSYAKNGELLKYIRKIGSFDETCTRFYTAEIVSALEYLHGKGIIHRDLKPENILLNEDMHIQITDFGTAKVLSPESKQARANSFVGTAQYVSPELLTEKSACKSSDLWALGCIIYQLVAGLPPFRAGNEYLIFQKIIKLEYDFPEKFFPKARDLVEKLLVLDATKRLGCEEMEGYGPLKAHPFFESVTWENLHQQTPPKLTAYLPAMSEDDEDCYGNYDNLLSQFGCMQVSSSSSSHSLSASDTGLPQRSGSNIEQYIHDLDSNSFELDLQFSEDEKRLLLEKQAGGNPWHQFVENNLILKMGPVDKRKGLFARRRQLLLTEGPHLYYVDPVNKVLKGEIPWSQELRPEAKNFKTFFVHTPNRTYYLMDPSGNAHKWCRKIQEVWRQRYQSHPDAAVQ

AC50 (GST-PDK1 [Phe157Leu]): 320 ± 190 nM | Max. activity (GST-PDK1 [Phe157Leu]): 1.4 ± 0.14 U/mg
Sequence: REPRILSEEEQEMFRDFDYIADWC [PIFtide, reference compound]
increase of PDK1 stability to temperature (PDK1): 10 °C

— patent US20110152166A1, “METHOD OF MODULATION OF PROTEIN PHOSPHORYLATION-DEPENDENT CONFORMATIONAL TRANSITIONS WITH LOW MOLECULAR WEIGHT COMPOUNDS” (priority 2006, published 2011)
